{"source": "paper PMC8802628", "about": "“Selective activation of PFKL suppresses the phagocytic oxidative burst” (Cell, 2021)", "target": "T1, PFKL (Homo sapiens, UniProt P17858)", "T1 construct": "endogenous in cells; host or cells: THP-1 cell lysate", "T1 sequence (P17858 2-780 limits assumed)": "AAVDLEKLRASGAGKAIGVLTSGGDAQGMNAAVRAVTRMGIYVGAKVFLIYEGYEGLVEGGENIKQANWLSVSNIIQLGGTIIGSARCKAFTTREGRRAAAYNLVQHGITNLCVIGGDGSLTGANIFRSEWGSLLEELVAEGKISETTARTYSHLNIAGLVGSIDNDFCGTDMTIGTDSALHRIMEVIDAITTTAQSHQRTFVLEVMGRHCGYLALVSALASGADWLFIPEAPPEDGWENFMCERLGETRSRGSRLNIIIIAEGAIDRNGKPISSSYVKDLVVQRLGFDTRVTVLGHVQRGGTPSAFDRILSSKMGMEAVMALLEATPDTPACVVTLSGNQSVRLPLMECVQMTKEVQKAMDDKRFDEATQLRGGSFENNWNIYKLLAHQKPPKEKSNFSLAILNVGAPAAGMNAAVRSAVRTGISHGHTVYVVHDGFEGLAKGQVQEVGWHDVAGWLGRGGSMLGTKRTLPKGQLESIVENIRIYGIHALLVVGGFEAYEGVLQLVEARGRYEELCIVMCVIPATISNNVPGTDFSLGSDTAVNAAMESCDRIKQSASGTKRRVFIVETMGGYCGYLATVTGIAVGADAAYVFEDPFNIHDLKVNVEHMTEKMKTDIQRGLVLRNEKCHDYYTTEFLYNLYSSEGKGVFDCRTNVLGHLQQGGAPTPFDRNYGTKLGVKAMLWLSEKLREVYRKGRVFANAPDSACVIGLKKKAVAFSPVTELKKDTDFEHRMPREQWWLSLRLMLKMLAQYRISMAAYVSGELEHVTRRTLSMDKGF", "assay": "Thermal proteome profiling (TPP) of neutrophil lysates", "format": "binding", "conditions": "10 μM NA-11, 37°C to 65°C", "method": "Neutrophils (3 × 10^7) were treated with 50 nM PMA for 20 min. Cell were washed twice in D-PBS, resuspended in KB buffer (25 mM Tris-HCL pH 7.5, 1 mM DTT, 10 mM MgCl2) and frozen in liquid nitrogen. Lysates were prepared by 5-7 freeze-thaw cycles in KB buffer. Protein concentration was determined via Bradford assay and lysates were incubated on ice for 30 min with either 10 μM NA-11 or DMSO vehicle. Samples were analyzed in two formats: (1) classical thermal proteome profiling (TPP) with full melting curves using 16-plex TMT labeling (8 temperatures between 37-65°C), and (2) Proteome Integral Solubility Alteration (PISA) assay with aggregated protein abundance from a defined temperature range using 10-plex TMT labeling (Five replicates 44-58°C). […]\nFor the classical TPP, quantitative data from each temperature were used to generate a thermal titration curve and calculate a melting point. PSM level quantitation was log2 transformed and summarized to protein level by aggregating all PSMs from the same primary Uniprot reference, and systematic variation between the treatments was normalized at each temperature. […] A quality score is calculated for each protein by evaluating R squares, curve slopes and similarity in slopes between the two fitted curves. […] Fold changes and p values were calculated between pre-defined treatment groups by the MSstats package. […]", "data": [{"smiles": "CC(=O)Nc1ccc2c(c1)OCc1cc(-c3ccccc3C#CCCCO)nn1C2", "note": "[NA-11]", "values": [{"measurement": "thermal shift in melting temperature (Tm) of PFKL", "result": 4, "unit": "°C"}]}]}
